This note sets out measurements from ChEMBL document CHEMBL2331157, “Structure-activity relationships of 6-(aminomethylphenoxy)-benzoxaborole derivatives as anti-inflammatory agent” (Bioorg Med Chem Lett, 2013).

SMILES strings stand for the structures.

The subject of data set [1] is PBMC. Briefly: Antiinflammatory activity in human PBMCs assessed as inhibition of LPS-induced IL6 release at 100 uM incubated for 15 mins prior to LPS challenge measured after 24 hrs by HTRF assay relative to control. Format: functional. For orientation: TR-FRET usually uses a lanthanide donor and a delayed reading to cut background.
Data set [2] concerns PBMC. The experiment in a line: Antiinflammatory activity in human PBMCs assessed as inhibition of LPS-induced IL1-beta release incubated for 15 mins prior to LPS challenge measured after 24 hrs by HTRF assay. Format: functional, cell-based.
Data set [3] deals with PBMC. The experiment in a line: Antiinflammatory activity in human PBMCs assessed as inhibition of LPS-induced IL1-beta release at 100 uM incubated for 15 mins prior to LPS challenge measured after 24 hrs by HTRF assay relative to control. Format: functional.
Data set [4] has as its system PBMC. Briefly: Antiinflammatory activity in human PBMCs assessed as inhibition of LPS-induced IL6 release incubated for 15 mins prior to LPS challenge measured after 24 hrs by HTRF assay. It is filed as functional, cell-based.
Data set [5] concerns PBMC. Briefly: Antiinflammatory activity in human PBMCs assessed as inhibition of LPS-induced TNFalpha release incubated for 15 mins prior to LPS challenge measured after 24 hrs by HTRF assay. Format: functional, cell-based.
Data set [6] relates to PBMC. The experiment in a line: Antiinflammatory activity in human PBMCs assessed as inhibition of LPS-induced TNFalpha release at 100 uM incubated for 15 mins prior to LPS challenge measured after 24 hrs by HTRF assay relative to control. It is filed as functional.
Data set [7] can be described thus: AUC in CD1 mouse at 10 mg/kg, po. It is filed as ADME, organism-based. Set-up: dose 10 mg/kg, route oral. The following applies: plasma.
A short description of data set [8]: Oral bioavailability in CD1 mouse at 10 mg/kg. It is filed as ADME, organism-based. The note with it: in vivo.
Data set [9] can be described thus: AUC in CD1 mouse at 5 mg/kg, iv. It is filed as ADME, organism-based. Also noted: dose 5 mg/kg, route intravenous. The note with it: plasma.
Data set [10] in a line: Terminal half life in CD1 mouse at 5 mg/kg, iv. Format: ADME, organism-based. Set-up: dose 5 mg/kg, route intravenous. The following applies: in vivo, read-out: beta t1/2 (converted).
The nature of data set [11]: Volume of distribution at steady state in CD1 mouse at 5 mg/kg, iv. The following applies: in vivo, read-out: Vdss. Set-up: dose 5 mg/kg, route intravenous. It is filed as ADME, organism-based.
Data set [12] is described as follows: Tmax in CD1 mouse at 10 mg/kg, po. Format: ADME, organism-based. The following applies: in vivo. Also noted: dose 10 mg/kg, route oral.
Data set [13] can be described thus: Cmax in CD1 mouse at 10 mg/kg, po. Format: ADME, organism-based. Also noted: dose 10 mg/kg, route oral. The following applies: in vivo.
Data set [14] can be described thus: Clearance in CD1 mouse at 5 mg/kg, iv. It is filed as ADME, organism-based. Also noted: dose 5 mg/kg, route intravenous. The note with it: in vivo.
The nature of data set [15]: Terminal half life in CD1 mouse at 10 mg/kg, po. Format: ADME, organism-based. Set-up: dose 10 mg/kg, route oral. The note with it: in vivo, read-out: beta t1/2 (converted).
Data set [16] deals with PBMC. The experiment in a line: Antiinflammatory activity in human PBMCs assessed as inhibition of LPS-induced IL6 release at 10 uM incubated for 15 mins prior to LPS challenge measured after 24 hrs by HTRF assay relative to control. It is filed as functional.

By inhibition is commonly meant the change of the read-out against control, counted positive when it falls. What is called IC50 is the concentration that inhibits the measured activity by half. Take `C[S+]([O-])c1ccc(-c2nc(-c3ccc(F)cc3)c(-c3ccncc3)[nH]2)cc1` (stereo not drawn) [SB-203580]: the inhibition at 100 µM is < 40% in data set [1], 80% in data set [3] and 80% in data set [6]. Also, the concentration for half-maximal inhibition (IC50) in data set [2] was 0.34 µM; in data set [4], > 10 µM; in data set [5] it was 1 µM.

As to `C[C@H]1C[C@H]2[C@@H]3CCC4=CC(=O)C=C[C@]4(C)[C@@]3(F)[C@@H](O)C[C@]2(C)[C@@]1(O)C(=O)CCl` [CLOBETASOL], the inhibition at 100 µM in data set [1], in data set [3] and in data set [6] was 80% each time. Moreover, the concentration for half-maximal inhibition (IC50) in [2] worked out at 4.4 µM; in data set [4], 4.2 µM; in [5] it was 0.007 µM.

Usually AUC stands for concentration integrated over time. A word on the bioavailability: it is the share of a dose that reaches the circulation, judged against a reference dose that is usually intravenous. The term Tmax denotes the time at which the peak concentration occurs. By Cmax is commonly meant the peak of the concentration-time curve. As usually defined, the clearance is the rate of elimination divided by the concentration. A higher clearance goes with efficient removal. In the case of `Cl.NCc1ccc(Oc2ccc3c(c2)B(O)OC3)c(Cl)c1`, the AUC in [7] came out at 2660 ng·h/mL; in data set [9], 2260 ng·h/mL. This compound had a bioavailability in data set [8] of 67%. In addition, the figures for the half-life in data set [10] and in data set [15] were 1.39 h and 2.82 h, respectively. Moreover, the Vd in data set [11] was 2.87 L/kg. Also, the Tmax in data set [12] was determined as 0.25 h. For the same compound, the Cmax in [13] worked out at 1450 ng/mL. In addition, the clearance in data set [14] is 36.8 mL/min/kg.

As for `C[C@@H]1C[C@H]2[C@@H]3CCC4=CC(=O)C=C[C@]4(C)[C@@]3(F)[C@@H](O)C[C@]2(C)[C@@]1(O)C(=O)CO` [DEXAMETHASONE], the IC50 worked out at 0.0095 µM in data set [2] and 0.017 µM in data set [5]. The inhibition at 100 µM in data set [3] and in [6] was 80% each time. The inhibition at 10 µM in data set [16] came out at 43%.

As to `CN1CCN(Cc2cccc(Oc3ccc4c(c3)B(O)OC4)c2)CC1`, the values for the inhibition at 100 µM in data set [1], in [3] and in data set [6] were < 40%, 40% and < 40%, respectively. Besides, the IC50 is 7.1 µM in [2], > 10 µM in data set [4] and > 10 µM in data set [5].

`Nc1cccc(Oc2ccc3c(c2)B(O)OC3)c1`: the inhibition at 100 µM in [1] and in data set [3] was < 40% each time. Further, the IC50 in [2], in [4] and in [5] was > 10 µM in each case.

As to `OB1OCc2ccc(Oc3cccc(CN4CCOCC4)c3)cc21`, the inhibition at 100 µM was < 40% in [1], 40% in data set [3] and 80% in [6]. In addition, the values for the 50% inhibitory concentration (IC50) in data set [2], in data set [4] and in data set [5] were 4.4 µM, > 10 µM and 5.9 µM, respectively.

Consider `Cl.NCc1ccc(Oc2ccc3c(c2)B(O)OC3)c(F)c1`, for which the AUC in [7] came out at 533 ng·h/mL; in [9] it was 1740 ng·h/mL. In data set [8], this compound registered a bioavailability of 15%. The inhibition at 100 µM in data set [1], in data set [3] and in data set [6] was 80% each time. The half-life in [10] was 0.65 h; in [15] it was 2.43 h. The concentration for half-maximal inhibition (IC50) in data set [2] worked out at 0.043 µM; in data set [4], 0.033 µM; in data set [5], 0.041 µM. The Vd in data set [11] came out at 2.14 L/kg. Further, the Tmax in data set [12] was determined as 0.25 h. In addition, the Cmax in data set [13] came to 142 ng/mL. Also, the clearance in data set [14] is 38 mL/min/kg.
